Laboratory results published in BindingDB's records for doi:10.1021/jm7011613 (Abbott Laboratories, 2008).

Target: Cannabinoid receptor 2 (Homo sapiens, UniProt P34972)
Test: Radioligand Binding Assay
Method: IC50 values for test compounds were determined from nonlinear regression analysis of data collected from ligand binding experiments. The inhibition constant (Ki) was calculated from IC50 value by the Cheng and Prusoff equation.

Chain of Cannabinoid receptor 2 (P34972 whole entry): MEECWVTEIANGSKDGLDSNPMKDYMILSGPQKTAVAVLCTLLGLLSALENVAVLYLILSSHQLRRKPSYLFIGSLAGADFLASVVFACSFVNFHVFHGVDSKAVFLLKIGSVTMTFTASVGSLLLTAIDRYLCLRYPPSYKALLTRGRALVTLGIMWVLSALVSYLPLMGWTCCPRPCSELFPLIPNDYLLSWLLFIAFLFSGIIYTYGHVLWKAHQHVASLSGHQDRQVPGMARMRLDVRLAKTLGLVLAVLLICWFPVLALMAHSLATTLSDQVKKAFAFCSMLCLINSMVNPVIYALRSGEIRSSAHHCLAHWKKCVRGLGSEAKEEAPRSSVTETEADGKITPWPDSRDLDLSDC

First: CC1(C)C(C(=O)c2cn(CC3CCOCC3)c3ccc(Cl)cc23)C1(C)C [5-chloro-1-(oxan-4-ylmethyl)-3-[(2,2,3,3-tetramethylcyclopropyl)carbonyl]-1H-indole]
Second: CC1(C)C(C(=O)c2cn(CC3CCOCC3)c3cc(Cl)ccc23)C1(C)C [6-chloro-1-(oxan-4-ylmethyl)-3-[(2,2,3,3-tetramethylcyclopropyl)carbonyl]-1H-indole]
The EC50 of the first is 6.3-fold higher: 132 nM for the first, 21 nM for the second.

Going from `CC1(C)C(C(=O)c2cn(CC3CCOCC3)c3ccc(F)cc23)C1(C)C` [5-fluoro-1-(oxan-4-ylmethyl)-3-[(2,2,3,3-tetramethylcyclopropyl)carbonyl]-1H-indole] to `CC1(C)C(C(=O)c2cn(CC3CCOCC3)c3ccc(O)cc23)C1(C)C` [1-(oxan-4-ylmethyl)-3-[(2,2,3,3-tetramethylcyclopropyl)carbonyl]-1H-indol-5-ol], the EC50 falls from 36.5 nM to 11 nM (3.3-fold).

Compared with `CC1(C)C(C(=O)c2cn(CC3CCOCC3)c3cc(O)c(O)cc23)C1(C)C` [1-(oxan-4-ylmethyl)-3-[(2,2,3,3-tetramethylcyclopropyl)carbonyl]-1H-indole-5,6-diol], `CC1(C)C(C(=O)c2cn(CC3CCOCC3)c3cc(O)ccc23)C1(C)C` [1-(oxan-4-ylmethyl)-3-[(2,2,3,3-tetramethylcyclopropyl)carbonyl]-1H-indol-6-ol] is 1.5-fold lower in EC50: 28 nM for the first, 18.5 nM for the second. The second is the more potent here.

First: CC1(C)C(C(=O)c2cn(CCN3CCOCC3)c3ccccc23)C1(C)C [4-(2-{3-[(2,2,3,3-tetramethylcyclopropyl)carbonyl]-1H-indol-1-yl}ethyl)morpholine]
Second: CC1(C)C(C(=O)c2cn(CCN3CCOCC3)c3cccc(N)c23)C1(C)C [1-[2-(morpholin-4-yl)ethyl]-3-[(2,2,3,3-tetramethylcyclopropyl)carbonyl]-1H-indol-4-amine]
The EC50 of the first is 12-fold lower: 17.5 nM for the first, 215 nM for the second.

First: CC1(C)C(C(=O)c2cn(CC3CCOCC3)c3ccc(N)cc23)C1(C)C [1-(oxan-4-ylmethyl)-3-[(2,2,3,3-tetramethylcyclopropyl)carbonyl]-1H-indol-5-amine]
Second: CC1(C)C(C(=O)c2cn(CC3CCOCC3)c3ccc(Br)cc23)C1(C)C [5-bromo-1-(oxan-4-ylmethyl)-3-[(2,2,3,3-tetramethylcyclopropyl)carbonyl]-1H-indole]
The EC50 of the first is 25-fold lower: 15.5 nM for the first, 390 nM for the second. The first is the more potent here.

Going from `CC1(C)C(C(=O)c2cn(CC3CCOCC3)c3ccc(C#N)cc23)C1(C)C` [1-(oxan-4-ylmethyl)-3-[(2,2,3,3-tetramethylcyclopropyl)carbonyl]-1H-indole-5-carbonitrile] to `CC1(C)C(C(=O)c2cn(CC3CCOCC3)c3cc(C#N)ccc23)C1(C)C` [1-(oxan-4-ylmethyl)-3-[(2,2,3,3-tetramethylcyclopropyl)carbonyl]-1H-indole-6-carbonitrile], the EC50 falls from 263 nM to 53 nM (5-fold). The second is the more potent here.

Going from `CC1(C)C(C(=O)c2cn(CC3CCOCC3)c3cccc(OCc4ccccc4)c23)C1(C)C` [4-(benzyloxy)-1-(oxan-4-ylmethyl)-3-[(2,2,3,3-tetramethylcyclopropyl)carbonyl]-1H-indole] to `CC1(C)C(C(=O)c2cn(CC3CCOCC3)c3cc(OCc4ccccc4)ccc23)C1(C)C` [6-(benzyloxy)-1-(oxan-4-ylmethyl)-3-[(2,2,3,3-tetramethylcyclopropyl)carbonyl]-1H-indole], the EC50 falls from 502 nM to 167 nM (3-fold). The second is the more potent here.

`CC1(C)C(C(=O)c2cn(CC3CCOCC3)c3ccc(CO)cc23)C1(C)C` [[1-(oxan-4-ylmethyl)-3-[(2,2,3,3-tetramethylcyclopropyl)carbonyl]-1H-indol-5-yl]methanol] and `COCc1ccc2c(c1)c(C(=O)C1C(C)(C)C1(C)C)cn2CC1CCOCC1` [5-(methoxymethyl)-1-(oxan-4-ylmethyl)-3-[(2,2,3,3-tetramethylcyclopropyl)carbonyl]-1H-indole] are within 1.5-fold of each other in EC50: 97.5 nM for the first, 74.5 nM for the second.

Compared with `CC1(C)C(C(=O)c2cn(CC3CCOCC3)c3ccccc23)C1(C)C` [1-(oxan-4-ylmethyl)-3-[(2,2,3,3-tetramethylcyclopropyl)carbonyl]-1H-indole], `CC1(C)C(C(=O)c2cn(CC3CCOCC3)c3cccc(O)c23)C1(C)C` [1-(oxan-4-ylmethyl)-3-[(2,2,3,3-tetramethylcyclopropyl)carbonyl]-1H-indol-4-ol] is 7.7-fold higher in EC50: 9.5 nM for the first, 73 nM for the second.

First: CC1(C)C(C(=O)c2cn(CC3CCOCC3)c3cc4c(cc23)OCO4)C1(C)C [5-(oxan-4-ylmethyl)-7-[(2,2,3,3-tetramethylcyclopropyl)carbonyl]-2H,5H-[1,3]dioxolo[4,5-f]indole]
Second: COc1ccc2c(c1)c(C(=O)C1C(C)(C)C1(C)C)cn2CC1CCOCC1 [5-methoxy-1-(oxan-4-ylmethyl)-3-[(2,2,3,3-tetramethylcyclopropyl)carbonyl]-1H-indole]
The EC50 of the first is 3.4-fold lower: 29.5 nM for the first, 101 nM for the second.

Going from `CC1(C)C(C(=O)c2cn(CC3CCOCC3)c3c(F)c(F)c(F)c(F)c23)C1(C)C` [4,5,6,7-tetrafluoro-1-(oxan-4-ylmethyl)-3-[(2,2,3,3-tetramethylcyclopropyl)carbonyl]-1H-indole] to `COc1cccc2c1c(C(=O)C1C(C)(C)C1(C)C)cn2CC1CCOCC1` [4-methoxy-1-(oxan-4-ylmethyl)-3-[(2,2,3,3-tetramethylcyclopropyl)carbonyl]-1H-indole], the EC50 rises from 40 nM to 91 nM (2.3-fold). The first is the more potent here.

With `Cc1c(C(=O)C2C(C)(C)C2(C)C)c2ccccc2n1CCN1CCOCC1` [4-(2-{2-methyl-3-[(2,2,3,3-tetramethylcyclopropyl)carbonyl]-1H-indol-1-yl}ethyl)morpholine] the EC50 was 362 nM.
